Test results taken from PubChem BioAssay AID2060505 (Molecular Pharmacology Branch, DTP, NCI, 2025).
Several values for one entry are separate records, joined by “and”; a condition that tells them apart may be missing. Identical values can stand only once.

System: 633275-114-R-J1-PDC complex spheroids, viability
Assay: Anticancer human tumor 633275-114-R-J1-PDC patient-derived endometrial adenocarcinoma cell line growth inhibition [GQUAD]
Details: for viability, T/C: stronger effect = lower value
Excerpt: DNA G-quadruplex Stabilizer Agents in Combinations in Complex Spheroids
A high-throughput screen of multi-cell type tumor spheroids was designed to identify active combinations of DNA G-quadruplex stabilizer agents and targeted small molecules. Complex spheroids include a stromal component modeled by human endothelial cells (HUVEC) and fibroblasts modeled by human mesenchymal stem cells (MSCs). The concentration ranges selected for each drug and investigational agent were based upon clinically achievable concentrations if the clinical Cmax of the agent was known.
Compounds. The drugs and investigational agents: pidnarulex (CX-5461; NSC782164), APTO-253 (NSC789042), BRACO-19 (NSC847499), peposertib (NSC802822), ceralasertib (NSC780249), elimusertib (NSC800525), camonsertib (NSC841442), AZD-1390 (NSC803789), olaparib (NSC753686), talazoparib (NSC767125), ART-558 (NSC835418), sotorasib (NSC818433), MRTX-1133 (NSC836407), SN-38 (NSC673596), topotecan (NSC609699), etoposide (NSC141540), doxorubicin (NSC123127), gemcitabine (NSC613327), 5-fluorouracil (NSC19893), paclitaxel (NSC125973), vemurafenib (NSC761431), panobinostat (NSC761190), R-306465 (JNJ-16241199; NSC773264), adavosertib (NSC754352), TP-3654 (NSC805149), carboplatin (NSC241240), KSQ-4279 (NSC840948), and staurosporine (NSC755774) were obtained from the National Cancer Institute (NCI) Developmental Therapeutics Program Chemical Repository (34). The FDA-approved anticancer drug set is available from the NCI Developmental Therapeutics Program. […] The stock solutions were prepared in dimethyl sulfoxide (DMSO, Sigma-Aldrich, St. Louis, MO, cat. D2650) at 800-fold the tested concentration and stored at -70 degrees C prior to their use. All drugs and investigational agents were tested over a range starting from a high concentration at or near the clinical Cmax and decreasing in half-log increments. If the clinical Cmax for an agent had not been determined, the highest concentration tested was 10 microM.
2.3 Cell Culture. All cells were maintained in an incubator at 37 degrees C and 5% CO2 with 95% humidity. The PDC lines were cultured according to standard operating procedures established by the NCI PDMR. All PDCs were thawed and cultured in Matrigel-coated flasks prepared with a working solution of 1X Ham's F-12 nutrient mix, without supplementation (Invitrogen, cat. 11765054), 100 U/mL penicillin-streptomycin (Invitrogen, cat. 15140122), and 2.5% Matrigel (Corning Inc., cat. 354248) for the first three passages. The 857933-349-R-J2-PDC line was cultured in 6C/Colon 1B media, which includes advanced DMEM/F-12 (Thermo Fisher Scientific, cat. 12634028), 10 mM HEPES (Thermo Fisher Scientific, cat. 15630080), 1X GlutaMAX supplement (Thermo Fisher Scientific, cat. 35050061), 0.1 mg/mL primocin (InvivoGen, cat. ant-pm-2), 10% defined fetal bovine serum, heat inactivated (HyClone Laboratories Inc., cat. SH30070.03HI), 50% L-WRN conditioned media (ATCC, cat. CRL-3276), 1.25 mM N-Acetyl-L-cysteine (Sigma-Aldrich, cat. A9165), 10 mM nicotinamide (Sigma-Aldrich, cat. N0636), 1X B-27 supplement (Thermo Fisher Scientific, cat. 17504044), 1X N-2 supplement (Thermo Fisher Scientific, cat. 17502048), 10 microM Y-27632 dihydrochloride (Tocris Bioscience, cat. 1254), and 50 ng/mL human EGF recombinant protein (Thermo Fisher Scientific, cat. PHG0311). The 485176-168-R4-J1-PDC line was cultured in Panc media, which includes all 6C/Colon 1B media components plus 100 ng/mL human FGF-10 (Thermo Fisher Scientific, cat. 100-26), 500 nM SB-431542 (Selleckchem, cat. S1067), and gastrin (Tocris, cat. 3006).
[…]
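Also: spheroids exposed to the agents for seven days.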
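For viability, T/C in this document: percent of DMSO vehicle control viability which is 100%.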

Row | Structure (SMILES) | IC50 (curve of compound) | IC50 (compound alone, run of 03/26/2024) | viability, T/C (compound 0.0316 µM) | viability, T/C (compound 0.1 µM) | viability, T/C (compound 0.316 µM) | viability, T/C (compound 1 µM) | viability, T/C (compound 3.16 µM) | viability, T/C (compound 10 µM) | viability, T/C (compound 0.000999 µM) | viability, T/C (compound 0.00316 µM) | viability, T/C (compound 0.00999 µM) | viability, T/C (compound 0.0999 µM)
1 | C#Cc1c(F)ccc2cc(O)cc(-c3ncc4c(N5CC6CCC(C5)N6)nc(OCC56CCCN5CC(F)C6)nc4c3F)c12 (stereo unspecified) | > 10000 nM | – | 113% and 109% and 110% | 97.5% and 81% and 88.5% | 89.9% and 97.2% and 102% | 91.7% and 88.4% and 80.4% | 89.1% and 69.1% and 78.6% | 72.7% and 64.9% and 67.2% | – | – | – | –
2 | C=CCn1c(=O)c2cnc(Nc3ccc(N4CCN(C)CC4)cc3)nc2n1-c1cccc(C(C)(C)O)n1 | 649 nM and 682 nM and 590 nM | – | 103% (2×) and 101% | 85.9% and 89.3% and 91.3% | 73.9% and 70.5% and 70.1% | 35.7% and 39.9% and 32.9% | 20.4% and 22.2% and 19.9% | 14.6% and 16.2% and 13.9% | – | – | – | –
3 | CC(=O)O[C@H]1C(=O)[C@@]2(C)[C@H]([C@H](OC(=O)c3ccccc3)[C@]3(O)C[C@H](OC(=O)[C@H](O)[C@@H](NC(=O)c4ccccc4)c4ccccc4)C(C)=C1C3(C)C)[C@]1(OC(C)=O)CO[C@@H]1C[C@@H]2O | < 31.6 nM | – | 47.5% and 49.6% and 46.9% | 22.7% and 22.6% and 27.5% | 18.4% and 21% and 21.7% | 20.4% and 20% and 23.4% | 18.8% and 21.8% and 21.4% | 19.4% and 21.5% and 20.4% | – | – | – | –
4 | CC(C)(O)C1CCC(Nc2ccc3ncc(-c4cccc(C(F)(F)F)c4)n3n2)CC1 (stereo unspecified) | 1810 nM and 2010 nM and 1640 nM | – | 103% and 106% (2×) | 94.8% and 101% and 89.9% | 95.2% and 87.9% and 105% | 68.7% and 71.4% and 61.6% | 29.8% and 33.2% and 29.4% | 35% and 33.7% and 39.8% | – | – | – | –
5 | CC1COCCN1c1cc(-c2ccnn2C)c2ccnc(-c3ccn[nH]3)c2n1 (stereo unspecified) | 170 nM and 137 nM and 140 nM | – | 81% and 83.4% and 86.5% | 59.5% and 53.2% and 55.1% | 38.6% and 39.2% and 35.8% | 26.8% and 24.3% and 27.8% | 19.3% (2×) and 20.4% | 18% and 15.8% and 15.7% | – | – | – | –
6 | CC1COCCN1c1cc(C2(O)CC3CCC(C2)O3)c2cnn(-c3ccn[nH]3)c2n1 (stereo unspecified) | 117 nM and 109 nM and 99.8 nM | – | 70% and 78% and 77.7% | 54.3% and 51.8% and 50.7% | 29% and 32.2% and 29.2% | 19.2% and 21% and 21.1% | 13.5% (2×) and 15.8% | 8.78% and 10.1% and 9.68% | – | – | – | –
7 | CC1COCCN1c1cc(C2(S(C)(=N)=O)CC2)nc(-c2ccnc3[nH]ccc23)n1 (stereo unspecified) | 3020 nM and 3220 nM and 6630 nM | – | 94.8% and 102% and 108% | 97.4% and 89.5% and 94.1% | 98.2% and 98.4% and 91.8% | 79.9% and 72.7% and 79.3% | 49.4% and 51.8% and 86.4% | 31% and 33.7% and 32.8% | – | – | – | –
8 | CCCS(=O)(=O)Nc1ccc(F)c(C(=O)c2c[nH]c3ncc(-c4ccc(Cl)cc4)cc23)c1F | 8670 nM and 8460 nM and 7300 nM | – | 101% and 96% and 115% | 91.7% and 116% and 104% | 101% and 107% and 113% | 105% and 106% and 99.1% | 101% and 87.6% and 96.9% | 42.9% and 43.6% and 32.6% | – | – | – | –
9 | CN(C)c1ccc(Nc2c3ccc(NC(=O)CCN4CCCC4)cc3nc3cc(NC(=O)CCN4CCCC4)ccc23)cc1 | – | 7.24 µM [middle of 12 runs] | 102% [middle of 12 runs] | 101% [middle of 12 runs] | 103% [middle of 12 runs] | 94.3% [middle of 12 runs] | 81.8% [middle of 12 runs] | 36.6% [middle of 12 runs] | – | – | – | –

Second part, led by results:

Row | IC50 (curve of compound) | IC50 (compound alone, run of 03/26/2024) | Structure (SMILES) | viability, T/C (compound 0.0316 µM) | viability, T/C (compound 0.1 µM) | viability, T/C (compound 0.316 µM) | viability, T/C (compound 1 µM) | viability, T/C (compound 3.16 µM) | viability, T/C (compound 10 µM) | viability, T/C (compound 0.000999 µM) | viability, T/C (compound 0.00316 µM) | viability, T/C (compound 0.00999 µM) | viability, T/C (compound 0.0999 µM)
10 | > 10000 nM | – | C=CC(=O)N1CCN(c2nc(=O)n(-c3c(C)ccnc3C(C)C)c3nc(-c4c(O)cccc4F)c(F)cc23)C(C)C1 (stereo unspecified) | 98.6% and 102% and 105% | 101% and 93.9% and 95.3% | 109% and 115% and 99.2% | 105% and 90.3% and 92% | 111% and 93.5% and 105% | 85% and 77% and 90.2% | – | – | – | –
11 | > 10000 nM | – | CC(C)n1c(=O)n(C)c2cnc3cc(F)c(-c4ccc(OCCCN5CCCCC5)nc4)cc3c21 | 111% and 107% and 105% | 102% and 105% and 94.4% | 112% and 103% and 93.6% | 95.5% and 97.2% and 101% | 96.8% and 95.2% and 92.5% | 69.9% and 73.6% and 72.5% | – | – | – | –
12 | 71.7 nM and 79.8 nM and 73.9 nM | – | CC[C@@]1(O)C(=O)OCc2c1cc1n(c2=O)Cc2cc3c(CN(C)C)c(O)ccc3nc2-1 | 68.2% and 70.6% and 66.2% | – | 37.1% and 38.9% and 35.8% | – | – | – | 95.5% and 106% and 99.4% | 97.2% and 89% and 87.9% | 86% and 86.5% and 92% | 41.4% and 40.2% and 45%
13 | 2.99 nM and 3.5 nM and 2.94 nM | – | CCc1c2c(nc3ccc(O)cc13)-c1cc3c(c(=O)n1C2)COC(=O)[C@]3(O)CC | 32.8% and 34.7% and 35.9% | – | 23.7% (2×) and 24.4% | – | – | – | 72.9% and 83.1% and 65.5% | 47.6% and 49.1% and 47% | 36.6% and 36.4% and 38.1% | 30% and 24.7% and 28.8%
